According to US20180000085A1, “USE OF PICOLINAMIDE COMPOUNDS WITH FUNGICIDAL ACTIVITY” (DOW AGROSCIENCES LLC, priority 2014, published 2018):

Tests used:
Zymoseptoria tritici = assay: Leaf blotch of wheat (SEPTTR) disease control on wheat seedlings; format: in vivo; design: key to SEPTTR 1DP, HV activity at 100 ppm (% control rating) / SEPTTR 3DC, HV activity at 100 ppm (% control rating) / SEPTTR disease control, 1DP / SEPTTR disease control, 3DC / SEPTTR 1DP disease control rating, HV activity / SEPTTR 3DC disease control rating, HV activity / SEPTTR 3DC, LV activity at 125.1 g/H (% Control rating) / SEPTTR 1DP, LV activity at 125.1 g/H (% Control rating) / SEPTTR 1DP disease control rating, LV activity at 125.1 g/H / SEPTTR 3DC disease control rating, LV activity at 125.1 g/H / SEPTTR 3DC disease control rating, HV activity at 100 ppm / SEPTTR 1DP disease control rating, HV activity at 100 ppm / HV activity at 100 ppm SEPTTR 3DC (disease control rating) / HV activity at 100 ppm SEPTTR 1DP (disease control rating) / LV activity at 125.1 g/H SEPTTR 1DP (disease control rating) / LV activity at 125.1 g/H SEPTTR 3DC (disease control rating): A: > 80; B: ≤ 80; C: Not Tested; D: No Activity Observed in the Reported Assay; conditions: for SEPTTR 1DP disease control rating, HV activity at 100 ppm / SEPTTR 3DC disease control rating, HV activity at 100 ppm: high volume application; for SEPTTR 1DP, LV activity at 125.1 g/H (% Control rating) / SEPTTR 1DP disease control rating, HV activity: 1 Day Protectant; for SEPTTR 3DC, LV activity at 125.1 g/H (% Control rating) / SEPTTR 3DC disease control rating, HV activity: 3 Day Curative; for SEPTTR 1DP disease control rating, HV activity / SEPTTR 3DC disease control rating, HV activity: HV application at 100 ppm, wheat leaf blotch
Puccinia triticina = assay: Wheat brown rust (PUCCRT) disease control on wheat seedlings; format: in vivo; design: key to PUCCRT 3DC, HV activity at 100 ppm (% control rating) / PUCCRT disease control, 3DC / PUCCRT 1DP disease control rating, HV activity / PUCCRT 3DC disease control rating, HV activity / PUCCRT 3DC, LV activity at 125.1 g/H (% Control rating) / PUCCRT 1DP, LV activity at 125.1 g/H (% Control rating) / PUCCRT 3DC disease control rating, LV activity at 125.1 g/H / PUCCRT 1DP disease control rating, LV activity at 125.1 g/H / PUCCRT 3DC disease control rating, HV activity at 100 ppm / PUCCRT 1DP disease control rating, HV activity at 100 ppm / HV activity at 100 ppm PUCCRT 3DC (disease control rating) / LV activity at 125.1 g/H PUCCRT 1DP (disease control rating) / LV activity at 125.1 g/H PUCCRT 3DC (disease control rating): A: > 80; B: ≤ 80; C: Not Tested; D: No Activity Observed in the Reported Assay; conditions: for PUCCRT 1DP disease control rating, HV activity at 100 ppm / PUCCRT 3DC disease control rating, HV activity at 100 ppm: high volume application; for PUCCRT 1DP, LV activity at 125.1 g/H (% Control rating) / PUCCRT 1DP disease control rating, HV activity: 1 Day Protectant; for PUCCRT 3DC, LV activity at 125.1 g/H (% Control rating) / PUCCRT 3DC disease control rating, HV activity: 3 Day Curative; for PUCCRT 1DP disease control rating, HV activity / PUCCRT 3DC disease control rating, HV activity: HV application at 100 ppm, wheat brown rust
[1] = low volume application, 125.1 g/H
[2] = low volume application, 125.1 g/H, 1 day protectant
[3] = low volume application, 125.1 g/H, 3 day curative

Structure (SMILES) | SEPTTR 1DP disease control rating, HV activity at 100 ppm (Zymoseptoria tritici; 1 day protectant) | SEPTTR 3DC disease control rating, HV activity at 100 ppm (Zymoseptoria tritici; 3 day curative) | PUCCRT 1DP disease control rating, HV activity at 100 ppm (Puccinia triticina; 1 day protectant) | PUCCRT 3DC disease control rating, HV activity at 100 ppm (Puccinia triticina; 3 day curative) | SEPTTR 1DP, LV activity at 125.1 g/H (% Control rating) (Zymoseptoria tritici; [1]) | SEPTTR 3DC, LV activity at 125.1 g/H (% Control rating) (Zymoseptoria tritici; [1]) | PUCCRT 1DP, LV activity at 125.1 g/H (% Control rating) (Puccinia triticina; [1]) | PUCCRT 3DC, LV activity at 125.1 g/H (% Control rating) (Puccinia triticina; [1]) | SEPTTR 1DP disease control rating, HV activity (Zymoseptoria tritici) | SEPTTR 3DC disease control rating, HV activity (Zymoseptoria tritici) | PUCCRT 1DP disease control rating, HV activity (Puccinia triticina) | PUCCRT 3DC disease control rating, HV activity (Puccinia triticina) | also measured
COc1cccc(O[C@H](C2CC2)[C@H](C)OC(=O)[C@H](C)NC(=O)c2nccc(OC)c2O)c1 [Cmpd 1014] | B (≤ 80) | B (≤ 80) | A (> 80) | A (> 80) |  |  |  |  |  |  |  |  | 
COc1ccnc(C(=O)NC(C)C(=O)OC(C)COCC2CC2)c1OCOC(=O)C(C)C (stereo not shown) [Cmpd 528] |  |  |  |  | D | B (≤ 80) | D | D |  |  |  |  | 
CCC(CC)[C@H](Oc1cccc(F)c1)[C@H](C)OC(=O)[C@H](C)NC(=O)c1nccc(OC)c1O [Cmpd 419] |  |  |  |  |  |  |  |  | B (≤ 80) | B (≤ 80) | A (> 80) | D | 
COc1ccnc(C(=O)N[C@@H](C)C(=O)O[C@@H](C)[C@H](OCC2CC2)c2cccc(-c3ccccc3)c2)c1OC(C)=O [Cmpd 875] |  |  |  |  |  |  |  |  |  |  |  |  | SEPTTR 1DP disease control rating, LV activity at 125.1 g/H (Zymoseptoria tritici; [2]): A (> 80); SEPTTR 3DC disease control rating, LV activity at 125.1 g/H (Zymoseptoria tritici; [3]): A (> 80); PUCCRT 1DP disease control rating, LV activity at 125.1 g/H (Puccinia triticina; [2]): A (> 80); PUCCRT 3DC disease control rating, LV activity at 125.1 g/H (Puccinia triticina; [3]): A (> 80)
COc1ccnc(C(=O)N[C@@H](Cc2ccccc2)C(=O)O[C@@H](C)[C@H](Oc2cccc(F)c2)c2ccccc2)c1OC(C)=O [Cmpd 577] |  |  |  |  | B (≤ 80) | D | A (> 80) | B (≤ 80) |  |  |  |  | 
CC(NC(=O)c1nccc(Cl)c1O)C(=O)OC(C)C(Oc1ccccc1)C(C)C (stereo not shown) [Cmpd 425] |  |  |  |  |  |  |  |  | D | D | B (≤ 80) | D | 
COc1ccnc(C(=O)N[C@@H](C)C(=O)O[C@@H](C)COC2CCCC2)c1O [Cmpd 340] |  |  |  |  |  |  |  |  | B (≤ 80) | D | B (≤ 80) | A (> 80) | 
COc1ccnc(C(=O)NC(C)C(=O)OC(C)C(Oc2ccccc2)c2ccccc2)c1O (stereo not shown) [Cmpd 818] | A (> 80) | A (> 80) | A (> 80) | D |  |  |  |  |  |  |  |  | 
COCC[C@@H](OCc1ccccc1)[C@H](C)OC(=O)[C@H](C)NC(=O)c1nccc(OC)c1OCOC(C)=O [Cmpd 526] |  |  |  |  | B (≤ 80) | B (≤ 80) | D | B (≤ 80) |  |  |  |  | 
COc1ccnc(C(=O)NC(C)C(=O)OC(C)(C)[C@H](Oc2ccccc2)C(C)C)c1O (stereo partly drawn) [Cmpd 835, (R)-2,4-dimethyl-3-phenoxypentan-2-yl 2-(3-hydroxy-4-methoxypicolinamido)propanoate] | D | B (≤ 80) | A (> 80) | A (> 80) |  |  |  |  |  |  |  |  | 
